What was measured:
[1] = On-treatment liver chemistry (ALT, TBL, ALP), confirmatory study PGx population, lapatinib plus letrozole phase III trial; type: in vivo, human
HLA-DQA1*0201 = test system: HLA-DQA1*0201
From the text: (§1) Germline DNA was extracted from peripheral blood (QiAmp DNA Blood Kit, Qiagen, Valencia, Calif.). This study evaluated candidate gene and genome-wide screening, performed in parallel, to detect case-control association signals in the exploratory cohort. Class I and II HLA genes (seven genes to 4-digit and three genes to 2-digit resolution) were typed by Laboratory Corporation of America (Burlington, N.C.) and Histogenetics (Ossining, N.Y.), or at GSK using the LABType® SSO Typing Test (One Lambda, Canoga Park, Calif.). […] Whole genome screen genotyping on the Illumina Human 1M-Duo platform was also conducted (Expression Analysis, Durham, N.C.).
(§2) For the exploratory study, initial analysis of the GWAS was done using logistic regression, carried out in PLINK (Purcell S, et al. American Journal of Human Genetics 2007; 81, 559-575) using the genotypic test option when three genotype classes were observed, or the additive test option when only two genotype classes were observed. […] In addition to the genotype term, all models included baseline ALT xULN, treatment group (for the exploratory study), and a sufficient number of principal components to account for potential confounding by population structure. Principal components were obtained from EIGENSOFT (Patterson N. et al. PLoS Genetics 2006; 2: e190), using study subjects and HapMap founders.
(§3) Genetic markers selected for confirmatory were required to achieve pre-defined p-value thresholds in the exploratory analysis of p≦0.05 for HLA markers, p≦0.01 for candidate gene markers and p≦10-4 for whole genome screen SNPs. For markers confirmed at p≦0.01, measures of potential clinical utility were evaluated. An allele or genotype(s) was designated which conferred a higher risk of ALT elevation and this was compared to the non-risk allele(s)/genotype(s) and the odds ratio (OR), positive predictive value (PPV), and negative predictive value (NPV) calculated.

HLA-DQB1*0202 = details: Exploratory study
From the text: as §1, §2, §3

HLA-DRB1*0701 [2] = details: Exploratory study
From the text: as §1, §2, §3

TNXB rs12153855 = test: ALT case-control genetic association, confirmatory study (lapatinib plus letrozole arm); type: in vivo, human; details: TNXB rs12153855 CC/CT
From the text: as §1, §2, §3

UGT1A1*28 [3] = details: exploratory
Method: The two phenotypes that were evaluated were maximum on-treatment liver chemistry values for ALT and TBL with respect to the upper limit of normal. These phenotypes were evaluated separately in case-control and quantitative trait analyses and jointly in a combined case-control analysis. ALT and TBL cases were defined as maximum on-treatment elevations of ≧3×ULN and ≧1.5×ULN, respectively, and control subjects were defined as maximum on-treatment ALT or TBL of ≦1×ULN.
2) As genetic understanding of drug-induced liver injury is limited, a comprehensive drug induced liver injury (DILI) panel, developed by GSI in consultation with external liver experts was also evaluated. This DILI panel is comprised of approximately 6500 single nucleotide polymorphisms (SNPs) in 270 gene regions derived from the postulated mechanisms involved in the pathophysiology of DILI. In both approaches, genetic variation in each gene region was investigated using tag SNPs selected from the International HapMap project and/or high density SNP coverage consisting of all functional SNPs with a previously recorded genotype to phenotype correlation. […] Evaluation of HLA genes focused on a subset of the total number of patients consisting of all ALT cases (N=47) and matched controls (N=47).

UGT1A1*28 [4] = details: confirmation analysis, lapatinib plus letrozole arm
Method: Statistical analyses used for this investigation indicated the following. The two phenotypes that were evaluated were maximum on-treatment liver chemistry values for ALT and TBL with respect to the upper limit of normal. These phenotypes were evaluated in both case-control and quantitative trait analyses while key associations were examined qualitatively in the combined ALT/TBL cases. ALT and TBL cases were defined as maximum on-treatment elevations of ≧3×ULN and ≧1.5×ULN, respectively, and control subjects were defined as maximum on-treatment ALT or TBL of ≦1×ULN. […] Approximately 370 patients with an adequate, fully consented DNA sample had available clinical data for these phenotypes.

HLA-DRB1*0701 [5] = test system: HLA-DRB1*0701
Method: The two phenotypes that were evaluated were maximum on-treatment liver chemistry values for ALT and TBL with respect to the upper limit of normal. These phenotypes were evaluated separately in case-control and quantitative trait analyses and jointly in a combined case-control analysis. ALT and TBL cases were defined as maximum on-treatment elevations of ≧3×ULN and ≧1.5×ULN, respectively, and control subjects were defined as maximum on-treatment ALT or TBL of ≦1×ULN. Approximately 950 patients with an adequate, fully consented DNA sample had available clinical data for these phenotypes. After subject genotyping quality control was completed, a total of 947 patients remained for pharmacogenetic analyses on at least one genetic variant.

[6] = cancer patients receiving lapatinib; cited from earlier work
[7] = On-treatment liver chemistry (ALT, TBL, ALP), exploratory study PGx population, twelve AMBC trials
[8] = Confirmatory Study ALT Cases (N=24)
[9] = Confirmatory Study ALT Cases with HLA Data Available, at time of maximum ALT
[10] = Confirmatory Study ALT Controls (N=155)
[11] = Confirmatory Study PGx Population (1 trial, N=374), lapatinib combination with letrozole
[12] = Confirmatory Study PGx Population (N=374), lapatinib + letrozole
[13] = lapatinib plus letrozole arm of the confirmatory study
[14] = Exploratory Study ALT Cases (N=37)
[15] = Exploratory Study ALT Cases with HLA Data Available, at time of maximum ALT
[16] = Exploratory Study ALT Controls (N=286)
[17] = Exploratory Study PGx Population (12 trials, N=901), lapatinib monotherapy or combinations
[18] = Exploratory Study PGx Population (N=901)

CS(=O)(=O)CCNCc1ccc(-c2ccc3ncnc(Nc4ccc(OCc5cccc(F)c5)c(Cl)c4)c3c2)o1 [lapatinib, N-(3 chloro-4-{[(3-fluorophenyl)methyl]oxy}phenyl)-6-[5-({[2 (methylsulfonyl)ethyl]amino}methyl)-2-furanyl]-4-quinazolinamine bis(4 methylbenzenesulfonate)monohydrate]
Maximum on treatment ALT xULN: Mean(SD) [1, 8]: 6.50(3.73) xULN | Maximum on treatment ALT xULN: Median [1, 8]: 4.96 xULN | N of ALT cases with Cholestatic injury type [1, 9]: 3 | N of ALT cases with Hepatocellular injury type [1, 9]: 12 | N of ALT cases with Mixed injury type [1, 9]: 9 | Maximum on treatment ALT xULN: Mean(SD) [1, 10]: 0.66(0.19) xULN | Maximum on treatment ALT xULN: Median [1, 10]: 0.65 xULN | Maximum on treatment ALT xULN: Mean(SD) [1, 11]: 1.53 (1.97) xULN | Maximum on treatment ALT xULN: Median [1, 11]: 0.91 xULN | Maximum on treatment ALT > 3 xULN (%) [1, 12]: 9.4% | Maximum on treatment ALT > 5 xULN (%) [1, 12]: 5.1% | Maximum on treatment ALT > 8 xULN (%) [1, 12]: 2.4% | Maximum on treatment TBL xULN: Mean(SD) [1, 12]: 0.93 (1.48) xULN | Maximum on treatment TBL xULN: Median [1, 12]: 0.76 xULN | hepatobiliary adverse event cases (ALT>3x and TBL >1.5xULN, irrespective of baseline ALT), number [1, 13]: Fifteen | patients adjudicated by liver experts as probable Hy's Rule cases, number [1, 13]: two | Carriage: cases (n/N) (HLA-DQA1*0201; DQA1*0201 carriage, ALT cases (>3xULN), Exploratory study): 14/35 | Carriage: controls (n/N) (HLA-DQA1*0201; DQA1*0201 carriage, ALT controls, Exploratory study): 58/283 | % that carry DQA1*0201, Cholestatic (HLA-DQA1*0201; Exploratory Study ALT Cases): 25% | % that carry DQA1*0201, Hepatocellular (HLA-DQA1*0201; Exploratory Study ALT Cases): 43% | % that carry DQA1*0201, Mixed (HLA-DQA1*0201; Exploratory Study ALT Cases): 40% | N that carry DQA1*0201, Cholestatic (HLA-DQA1*0201; Exploratory Study ALT Cases): 1 | N that carry DQA1*0201, Hepatocellular (HLA-DQA1*0201; Exploratory Study ALT Cases): 9 | N that carry DQA1*0201, Mixed (HLA-DQA1*0201; Exploratory Study ALT Cases): 4 | Carriage: cases (%) (HLA-DQB1*0202; ALT cases): (37%) | Carriage: cases (n/N) (HLA-DQB1*0202; ALT cases): 13/35 | Carriage: controls (%) (HLA-DQB1*0202; ALT controls): (17%) | Carriage: controls (n/N) (HLA-DQB1*0202; ALT controls): 47/281 | Carriage: cases (%) (HLA-DRB1*0701 [2]; ALT cases): (40%) | Carriage: cases (n/N) (HLA-DRB1*0701 [2]; ALT cases): 14/35 | Carriage: controls (%) (HLA-DRB1*0701 [2]; ALT controls): (21%) | Carriage: controls (n/N) (HLA-DRB1*0701 [2]; ALT controls): 59/283 | Carriage: cases (%) (TNXB rs12153855; ALT cases): (63%) | Carriage: cases (n/N) (TNXB rs12153855; ALT cases): 15/24 | Carriage: controls (%) (TNXB rs12153855; ALT controls): (19%) | Carriage: controls (n/N) (TNXB rs12153855; ALT controls): 29/155 | TBL cases with TA7/TA7 genotype (UGT1A1*28 [3]; TBL cases (N=60)): Thirty five | TBL cases with at least one TA7 allele (UGT1A1*28 [3]; TBL cases (N=60)): 82% | TBL controls with TA7/TA7 genotype (UGT1A1*28 [3]; controls (N=396)): 5% | TBL controls with at least one TA7 allele (UGT1A1*28 [3]; controls (N=396)): 48% | TBL cases carrying TA7/TA7 genotype (UGT1A1*28 [4]; TBL cases >=1.5xULN (n=21)): 33% | TBL controls carrying TA7/TA7 genotype (UGT1A1*28 [4]; controls (n=226)): 4% | combined ALT/TBL cases with at least one of the significant HLA alleles (HLA-DRB1*0701 [5]; exploratory, 4/13 combined cases, HLA-DRB1*0701 or HLA-B*4403): 31% | ALT cases with at least one copy of HLA-DRB1*0701 (HLA-DRB1*0701 [5]; matched case-control, 47 cases): 40% | ALT controls with at least one copy of HLA-DRB1*0701 (HLA-DRB1*0701 [5]; matched case-control, 47 controls): 13% | Grade 3 ALT elevation (Common Toxicity Criteria for Adverse Events, v4.0), patients affected [6]: 1.6% | Hy's Rule events, patients affected [6]: 0.2% | Maximum on treatment ALT xULN: Mean(SD) [7, 14]: 6.47(6.57) xULN | Maximum on treatment ALT xULN: Median [7, 14]: 4.70 xULN | N of ALT cases with Cholestatic injury type [7, 15]: 4 | N of ALT cases with Hepatocellular injury type [7, 15]: 21 | N of ALT cases with Mixed injury type [7, 15]: 10 | Maximum on treatment ALT xULN: Mean(SD) [7, 16]: 0.59(0.21) xULN | Maximum on treatment ALT xULN: Median [7, 16]: 0.59 xULN | Maximum on treatment ALT xULN: Mean(SD) [7, 17]: 1.29 (1.96) xULN | Maximum on treatment ALT xULN: Median [7, 17]: 0.80 xULN | Maximum on treatment ALP xULN: Mean(SD) [7, 18]: 1.34 (1.40) xULN | Maximum on treatment ALP xULN: Median [7, 18]: 0.91 xULN | Maximum on treatment ALT > 3 xULN (%) [7, 18]: 7.3% | Maximum on treatment ALT > 5 xULN (%) [7, 18]: 2.7% | Maximum on treatment ALT > 8 xULN (%) [7, 18]: 1.0% | Maximum on treatment TBL xULN: Median [7, 18]: 0.68 xULN
